Data on 4 compounds can be found in patent US20090232942A1, “Yeast Preparations With Improved Antioxidant Properties and Uses Thereof” (priority 2005, published 2009).

≈ marks a conversion by molar mass, not a printed value.

Common to all, as to assay type: biochemical
The test system of assay [1] is LDL/VLDL. Kind of assay: LAG-TIME method: Cu2+-induced oxidation of LDL/VLDL, absorbance at 234 nm, unbound samples. To be noted: 1 μM of sample; for Lag Time: 70 μg/ml LDL/VLDL, 25 μM Cu2+, 234 nm; for Increase of Lag Time 1 (%): relative to control (LDL alone). As to the method: It makes it possible to measure the time required for the added antioxidants to oxidize. […] The effect of the antioxidant present is all the stronger when the lag time is long (in seconds). The kinetic analysis was carried out at 234 nm. The various samples were brought to the same concentration of 1 μm.
The mixture was subjected to Vortex stirring for 5 minutes, then to centrifugation for 10 minutes. […] of supernatant was recovered. This product was ready to use. (sample No. 7 was ground into a fine powder before being mixed with water).
The procedure described in the publication J. Agric. […] This experiment thus made it possible to measure the capacity of the antioxidant tested to inhibit oxidation.
The LDL/VLDL preparation and the various samples were diluted in PBS in order to obtain the desired concentration (70 μg/ml of LDL/VLDL). The control batch contained only the 70 μg/ml LDL/VLDL preparation and PBS. The absorbance of the PBS, the control batch and the other samples was carried out at a wavelength of 234 nm over 10 min on a Genesys 5 machine. Next, 25 μM of Cu^2+ (final concentration in the solution) were added and mixed and the absorbance measurement was carried out every 5 minutes for 6 to 8 hours.

Assay [2] deals with LDL/VLDL. Kind of assay: Bound LAG TIME: samples incubated 2 hours with LDL/VLDL before Cu2+-induced oxidation. Particulars: 1 μM of sample; for Lag Time: bound (2 hours incubation with LDL/VLDL at ambient temperature), 25 μM Cu2+; for Increase of Lag Time 1 (%) / Increase of Lag Time 2 (%): bound; for Increase of Lag Time 1 (%): relative to control (LDL alone); for Increase of Lag Time 2 (%): relative to the unbound sample. The method, then:
The LDLs and the various antioxidants were inoculated so that bonds were created. This phenomenon is supposed to represent what happens in the plasma when an antioxidant having the ability to bind is absorbed.
The various samples and the LDL/VLDL preparation were diluted to 1 μM and 70 μg/ml respectively in PBS, then incubated at ambient temperature for 2 hours. Next, 25 μM of Cu^2+ (final concentration in the solution) were added and mixed and the absorbance measurement was carried out every 5 minutes for 6 to 8 hours. The absorbance of the samples was measured at a wavelength of 234 nm over 10 min on a Genesys 5 machine. The tocopherol was used as a positive control given that it is known for binding to the LDL which is generally a tocopherol carrier in plasma.

A short description of assay [3]: Reduction of the DPPH radical, inhibition of absorbance at 523 nm (UV-visible). Particulars: for IC50 Mean: n = 3. An excerpt: DPPH. has an intense violet color and this compound remains stable, in the solid form, for years. An antioxidant, proton donor, is capable of reducing this radical (DPPH.→DPPH2), which leads to a decrease in its absorbance. The antioxidant capacity of the compounds is thus determined by evaluating the percentage of inhibition of the absorbance of DPPH. at 523 nm. […] The DPPH. sold by Aldrich and the vitamin C sold by Merck were used. In these tests, the selenium and glutathione concentrations were such that the solution of E2 contained as much selenium and glutathione as that of E1. The method used made it possible to evaluate the overall antioxidant power of the mixture and to compare it to that of reference substances under the same experimental conditions. The antioxidant activity was evaluated by measuring the capacity of the extract to trap the […].
(Loss of DPPH colour is used to gauge radical scavenging.)

Consider `C[Se]CC[C@H](N)C(=O)O` [selenomethionine], for which, in the assay with LDL/VLDL [1], the “inhibition of LDL oxidation in comparison to the control (in words)” value is given as “did not show signs of inhibition”, the “Lag Time” value is 2805 s and the “Increase of Lag Time 1 (%)” value is recorded as −8%. In the assay with LDL/VLDL [2], the “Lag Time” value turned out to be 6267 s, the “Increase of Lag Time 1 (%)” value amounted to 106% and the “Increase of Lag Time 2 (%)” value is recorded as 123%.
Consider tocopherol, for which, in the assay on LDL/VLDL [1], the “inhibition of LDL oxidation in comparison to the control (in words)” value is “high levels of inhibition”, the “Lag Time” value is 7285 s and the “Increase of Lag Time 1 (%)” value stood at 140%. In addition, in the assay with LDL/VLDL [2], the “Lag Time” value worked out at 20940 s, the “Increase of Lag Time 1 (%)” value is 590% and the “Increase of Lag Time 2 (%)” value is given as 187%.
For `N[C@@H](CCC(=O)N[C@@H](CS)C(=O)NCC(=O)O)C(=O)O` [Glutathione], the “IC50 times higher than that for vitamin C” value in assay [3] (30 min value) was 40 times. Further, the “IC50 Mean” value came to 292.97 mg/L (≈ 953 µM) in assay [3] (Time 10 min), 233.84 mg/L (≈ 761 µM) in assay [3] (Time 20 min) and 202.13 mg/L (≈ 658 µM) in assay [3] (Time 30 min).
Turning to `O=C1O[C@H]([C@@H](O)CO)C(O)=C1O` [Vitamin C, vitamin C], the “IC50 Mean” value worked out at 5.24 mg/L (≈ 29.8 µM) in assay [3] (Time 10 min), 5.20 mg/L (≈ 29.5 µM) in assay [3] (Time 20 min) and 5.16 mg/L (≈ 29.3 µM) in assay [3] (Time 30 min).
